Assay results reported in US20040176349A1, “Antibacterial composition” (priority 2001, published 2004).

What was measured:
[1] = system: E.faecalis 78097 (van B); experiment: Checkerboard microdilution MIC with PFOB, Table 2; assay type: cell-based
Excerpt: (§1) The aim of the study was to detect any synergy between PFOB and the other antibiotics. For the purposes of the study, synergy was defined in accordance with the FIC (fractional inhibitory concentration) index, as disclosed by Lorian (1991, In “Antibiotics in Laboratory Medicine” 3rd edition, Eds. Williams & Wilkins; esp. p 434-443). In essence, if the combination of test compounds gives at least a 4-fold reduction in the FIC value for each compound, then a synergy may be considered to exist (i.e. FIC of the combination <0.5=synergy; FIC 0.5-2.0=“indifference”; and FIC >2=antagonism).
(§2) In Table 2, results in the checkerboard indicating synergy are hatched, and specific optimum synergistic combinations are boxed.

[2] = system: E. faecalis 5659 (vanA); experiment: Checkerboard microdilution MIC with PFOB, Table 2; assay type: cell-based
Excerpt: as §1, §2

[3] = system: E. faecalis ATCC 29212; experiment: Checkerboard microdilution MIC with PFOB, Table 2; assay type: cell-based
Excerpt: as §1, §2

[4] = system: enterococci; experiment: Checkerboard study, synergy summary of Example 2; assay type: cell-based, Enterococcus; conditions: in words
Excerpt: as §1

[5] = system: E. faecalis ATCC 10541; experiment: Checkerboard microdilution MIC with PFOB, Table 2; assay type: cell-based
Excerpt: The aim of the study was to detect any synergy between PFOB and the other antibiotics. For the purposes of the study, synergy was defined in accordance with the FIC (fractional inhibitory concentration) index, as disclosed by Lorian (1991, In “Antibiotics in Laboratory Medicine” 3rd edition, Eds. Williams & Wilkins; esp. p 434-443).

[6] = Enterococcus faecalis, read-out: MIC (alone) of Partner

For `CN[C@H](CC(C)C)C(=O)N[C@H]1C(=O)N[C@@H](CC(N)=O)C(=O)N[C@H]2C(=O)N[C@H]3C(=O)N[C@H](C(=O)N[C@H](C(=O)O)c4cc(O)cc(O)c4-c4cc3ccc4O)[C@H](O)c3ccc(c(Cl)c3)Oc3cc2cc(c3O[C@@H]2O[C@H](CO)[C@@H](O)[C@H](O)[C@H]2O[C@H]2C[C@](C)(N)[C@H](O)[C@H](C)O2)Oc2ccc(cc2Cl)[C@H]1O` [Vancomycin, vancomycin], the “Synergy FIC” value ([1]; E.faecalis 78097 (van B), FIC index of PFOB + labelled partner, <0.5 = synergy) was 0.375, the “MIC of partner antibiotic in the presence of PFOB at 0.5 mg/L” value (“MIC of partner antibiotic … at 0.5 mg/L” below) ([1]; E.faecalis 78097 (van B), PFOB 0.5 mg/L) was 64 µg/mL and the “MIC of partner antibiotic in the presence of PFOB at 1 mg/L” value (“MIC of partner antibiotic … at 1 mg/L” below) ([1]; E.faecalis 78097 (van B), PFOB 1 mg/L) was 64 µg/mL. The “MIC of partner antibiotic in the presence of PFOB at 2 mg/L” value (from here on “MIC of partner antibiotic … at 2 mg/L”) ([1]; E.faecalis 78097 (van B), PFOB 2 mg/L) was 64 µg/mL, the “MIC of partner antibiotic in the presence of PFOB at 4 mg/L” value (shortened to “MIC of partner antibiotic … at 4 mg/L”) ([1]; E.faecalis 78097 (van B), PFOB 4 mg/L) was 64 µg/mL and the “MIC of partner antibiotic in the presence of PFOB at 8 mg/L” value (“MIC of partner antibiotic … at 8 mg/L” below) ([1]; E.faecalis 78097 (van B), PFOB 8 mg/L) was 64 µg/mL. For the same compound, the “MIC of partner antibiotic in the presence of PFOB at 16 mg/L” value (from here on “MIC of partner antibiotic … at 16 mg/L”) ([1]; E.faecalis 78097 (van B), PFOB 16 mg/L) was 32 µg/mL, the “MIC of partner antibiotic in the presence of PFOB at 32 mg/L” value (“MIC of partner antibiotic … at 32 mg/L” below) ([1]; E.faecalis 78097 (van B), PFOB 32 mg/L) was 16 µg/mL and the “MIC of PFOB & Partner: Partner concentration” value ([1]; E.faecalis 78097 (van B), optimum synergistic combination with PFOB, second figure (partner)) was 32 µg/mL. For the same compound, the MIC [1, 6] was over 64 µg/mL, the “MIC of partner antibiotic … at 0.5 mg/L” value ([2]; E. faecalis 5659 (vanA), PFOB 0.5 mg/L) was over 64 µg/mL and the “MIC of partner antibiotic … at 1 mg/L” value ([2]; E. faecalis 5659 (vanA), PFOB 1 mg/L) was over 64 µg/mL. The “MIC of partner antibiotic … at 2 mg/L” value ([2]; E. faecalis 5659 (vanA), PFOB 2 mg/L) was over 64 µg/mL, the “MIC of partner antibiotic … at 4 mg/L” value ([2]; E. faecalis 5659 (vanA), PFOB 4 mg/L) was over 64 µg/mL and the “MIC of partner antibiotic … at 8 mg/L” value ([2]; E. faecalis 5659 (vanA), PFOB 8 mg/L) was over 64 µg/mL. For the same compound, the “MIC of partner antibiotic … at 16 mg/L” value ([2]; E. faecalis 5659 (vanA), PFOB 16 mg/L) was over 64 µg/mL, the “MIC of partner antibiotic … at 32 mg/L” value ([2]; E. faecalis 5659 (vanA), PFOB 32 mg/L) was over 64 µg/mL and the MIC [2, 6] was over 64 µg/mL. For the same compound, the “Synergy FIC” value ([3]; E. faecalis ATCC 29212, FIC index of PFOB + labelled partner, <0.5 = synergy) was 0.31, the “MIC of partner antibiotic … at 0.5 mg/L” value ([3]; E. faecalis ATCC 29212, PFOB 0.5 mg/L) was 4 µg/mL and the “MIC of partner antibiotic … at 1 mg/L” value ([3]; E. faecalis ATCC 29212, PFOB 1 mg/L) was 2 µg/mL. The “MIC of partner antibiotic … at 2 mg/L” value ([3]; E. faecalis ATCC 29212, PFOB 2 mg/L) was 2 µg/mL, the “MIC of partner antibiotic … at 4 mg/L” value ([3]; E. faecalis ATCC 29212, PFOB 4 mg/L) was 2 µg/mL and the “MIC of partner antibiotic … at 8 mg/L” value ([3]; E. faecalis ATCC 29212, PFOB 8 mg/L) was 2 µg/mL. For the same compound, the “MIC of partner antibiotic … at 16 mg/L” value ([3]; E. faecalis ATCC 29212, PFOB 16 mg/L) was 1 µg/mL, the “MIC of partner antibiotic … at 32 mg/L” value ([3]; E. faecalis ATCC 29212, PFOB 32 mg/L) was 1 µg/mL and the “MIC of PFOB & Partner: Partner concentration” value ([3]; E. faecalis ATCC 29212, optimum synergistic combination with PFOB, second figure (partner)) was 1 µg/mL. For the same compound, the MIC ([3]; Enterococcus faecalis, ATCC29212, read-out: MIC (alone) of Partner) was 4 µg/mL, the “synergy with PFOB” value [4] was “less marked, but still significant, synergy” and the “MIC of partner antibiotic … at 0.5 mg/L” value ([5]; E. faecalis ATCC 10541, PFOB 0.5 mg/L) was 2 µg/mL. For the same compound, the “MIC of partner antibiotic … at 1 mg/L” value ([5]; E. faecalis ATCC 10541, PFOB 1 mg/L) was 2 µg/mL, the “MIC of partner antibiotic … at 2 mg/L” value ([5]; E. faecalis ATCC 10541, PFOB 2 mg/L) was 2 µg/mL and the “MIC of partner antibiotic … at 4 mg/L” value ([5]; E. faecalis ATCC 10541, PFOB 4 mg/L) was 2 µg/mL. For the same compound, the “MIC of partner antibiotic … at 8 mg/L” value ([5]; E. faecalis ATCC 10541, PFOB 8 mg/L) was 2 µg/mL, the “MIC of partner antibiotic … at 16 mg/L” value ([5]; E. faecalis ATCC 10541, PFOB 16 mg/L) was 1 µg/mL and the “MIC of partner antibiotic … at 32 mg/L” value ([5]; E. faecalis ATCC 10541, PFOB 32 mg/L) was 1 µg/mL. For the same compound, the MIC ([5]; Enterococcus faecalis, ATCC10541, read-out: MIC (alone) of Partner) was 4 µg/mL.
